Consider four compounds from patent US10010077B2, “Ginkgo derived compositions and their use to prevent fruit infestation by codling moth” (Missouri State University, priority 2012, dated 2018).

The test concerns codling moth neonates. Description: apple plug choice feeding bioassay with codling moth neonates. Format: in vivo, Cydia pomonella. Set-up: key to Deterrence index: (1 − treated feeders / control feeders) × 100. As to conditions: for feeding deterrent properties against codling moth neonates: all concentrations tested. The protocol: Codling moth pupae were obtained from USDA-ARS Yakima Agricultural Research Laboratory in Wapato, Wash., USA. These pupae were stored at 25° C., 70-80% relative humidity and 16:8 (L:D). Moths were allowed to oviposit on polypropylene Ziploc bags (S. C. Johnson, Racine, Wis., USA). Neonates were collected 0.5-1.0 h post-hatch and subjected to bioassays immediately.
Bioassays were performed as described in details by Durden et al. (2008). Briefly, apple plugs were formed by forcing a plastic soda straw through a 20 mm thick section of apple containing both epidermis and flesh of the apple. The straw with a plug in it was cut to a length of approximately 15 mm, the plug positioned with the epidermis of the apple protruding 2 mm from the straw and entire assembly was dipped in liquid paraffin wax. Excess wax was removed from the epidermis of the plug using a warm spatula.
Five microliters of either control (dehydration alcohol only) or experimental solution was applied to the epidermis of each apple plug and allowed to dry. Using a small amount of modeling clay, four plugs (two controls, two experimental) were arranged with one control and one experimental plug facing each other at either side of a 60×15 mm polyurethane petri dish. A short piece of glass rod (1.3 mm diameter) was placed between the two pairs of plugs to form a bridge allowing tested codling moth neonate to choose between either control or experimental plug regardless of which direction the larva traveled along the glass rod.
Assays were evaluated after 20 hours to determine which plug was fed upon. Feeding deterrence index was calculated according to Jones (1952) by dividing the number of the neonates feeding on apple plugs treated with […] by the number of the neonates feeding on the plugs treated with dehydration alcohol only, subtracting this figure from 1, and multiplying the result by 100. Further details about this method may be found in Durden et al. (2008) and Durden et al., (2011).
[…] The number of tests per concentration (each test performed with a different neonate) varied between 13 and 93. The null hypothesis that 50% of neonates would choose control plugs and 50% would choose experimental plugs was tested using Fisher's Exact Test (α=0.05).

[1] abbreviates: choice test versus fruit treated at 0.5 mg/ml.
Setting [2] is: choice test versus fruit treated at 1 mg/ml.
[3] abbreviates: choice test versus fruit treated at 5 mg/ml.
Setting [4] is: choice test versus fruit treated at 10 mg/ml.

SMILES strings stand for the structures. Marks after values point to notes of the source that are not given here.

Consider `CCCCCCCCCCCCCc1cccc(O)c1C(=O)O` [Ginkgolic acid 13:0], for which the Deterrence index was found to be 23.5 (0.5 mg/ml), 26.1 (1 mg/ml), 0 (5 mg/ml) and 42.1 (10 mg/ml). Besides, the “Number of neonates feeding Treated fruit” value is listed as 13 (0.5 mg/ml), 17 (1 mg/ml), 14 (5 mg/ml) and 11 (10 mg/ml). The “feeding deterrent properties against codling moth neonates” value (shortened to “feeding deterrent properties”) (Fisher exact test) is “did not exhibit significant feeding deterrent properties”. Also, the “Number of neonates feeding Control fruit” value under setting [1] turned out to be 17, the “Number of neonates feeding Control fruit” value under setting [2] amounted to 23, the “Number of neonates feeding Control fruit” value under setting [3] is given as 14 and the “Number of neonates feeding Control fruit” value under setting [4] was found to be 19.
Turning to `CCCCCCCCCCCCCCCc1cccc(O)c1C(=O)O` [Ginkgolic acid 15:0], the Deterrence index runs as follows: (0.2 mg/ml) 25.0; (0.5 mg/ml) 26.7; (1 mg/ml) 91.7; (2 mg/ml) 73.7; (5 mg/ml) 81.8. Moreover, the “Number of neonates feeding Treated fruit” value reads like this: (0.2 mg/ml) 12; (0.5 mg/ml) 11; (1 mg/ml) 1*; (2 mg/ml) 5*; (5 mg/ml) 4**. For the same compound, the “concentration at which feeding deterrent effects were found” value (Fisher exact test) is no less than 1 mg/mL. In addition, the “Number of neonates feeding Control fruit” value runs as follows: (choice test versus fruit treated at 0.2 mg/ml) 16; under setting [1], 15; under setting [2], 12; (choice test versus fruit treated at 2 mg/ml) 19; under setting [3], 22.
In turn, `CCCCCC/C=C\CCCCCCCc1cccc(O)c1C(=O)O` [Ginkgolic acid 15:1] registered a Deterrence index (0.5 mg/ml) of 18.8, a Deterrence index (1 mg/ml) of 41.7, a Deterrence index (5 mg/ml) of 50.0 and a Deterrence index (10 mg/ml) of 63.2. Besides, the “Number of neonates feeding Treated fruit” value is, setting by setting: (0.5 mg/ml) 13; (1 mg/ml) 14; (5 mg/ml) 15; (10 mg/ml) 7. Besides, the “feeding deterrent properties” value (Fisher exact test) is “did not exhibit significant feeding deterrent properties”. Besides, the “Number of neonates feeding Control fruit” value under setting [1] was found to be 16, the “Number of neonates feeding Control fruit” value under setting [2] is recorded as 24, the “Number of neonates feeding Control fruit” value under setting [3] turned out to be 30 and the “Number of neonates feeding Control fruit” value under setting [4] is recorded as 19.
The compound `CCCCCC/C=C\CCCCCCCCCc1cccc(O)c1C(=O)O` [Ginkgolic acid 17:1] gave a Deterrence index (0.5 mg/ml) of 37.5, a Deterrence index (1 mg/ml) of 5.3, a Deterrence index (5 mg/ml) of 54.5 and a Deterrence index (10 mg/ml) of 60.0. In addition, the “Number of neonates feeding Treated fruit” value is, setting by setting: (0.5 mg/ml) 10; (1 mg/ml) 18; (5 mg/ml) 10; (10 mg/ml) 8. Moreover, under “Fisher exact test”, the “feeding deterrent properties” value is given as “did not exhibit significant feeding deterrent properties”. Further, the “Number of neonates feeding Control fruit” value is, setting by setting: under setting [1], 16; under setting [2], 19; under setting [3], 22; under setting [4], 20.
